From US11318103B2, “Treating soft tissue via controlled drug release” (University of Pittsburgh—Of the Commonwealth System of …, priority 2014, dated 2022) come the findings set out here.

In experiment [1] the test system is human osteochondral plugs. As to the kind of experiment: T3-induced calcification of human osteochondral plugs (ALP assay, real time-PCR). It counts as cell-based. The note with it: treatment with triiodothyronine (T3), day 0 versus day 20. The text has this:
FIG. 5 represents the outline for testing of preventing calcification. Experimental design to test the effects of triiodothyronine in inducing calcification and of dorsomorphin in inhibiting calcification in human osteochondral biopsies, an example of which is depicted on the right.
FIG. 6 is two graphs depicting ALP activity. The graphs represent the level of ALP activity in the osteochondral constructs media measured with a colorimetric ALP assay for the samples outlined in the previous figure.
Dorsomorphin has been encapsulated in PLGA-based MPs of micrometer scale dimensions. As the particles degrade, dorsomorphin is released generating a local concentration within the range required to prevent local calcification. To confirm this, human osteochondral plugs (3 mm by 3 mm by 8 mm of a cartilage and bone biopsy-like sample) have been forced to calcify using triiodothyronine (T3) and then exposed to dorsomorphin.

For experiment [2], the system named is human chondrocytes. As to the kind of experiment: T3-induced hypertrophy of primary chondrocytes. It counts as cell-based. The note with it: T3 medium 14 or 21 days, maintained after exposure to chondrogenic medium. The text has this:
FIGS. 7A-7F are microphotographs of human chondrocytes. Chondrocytes extracted from human donors have been cultured under a test medium to induce hypertrophy for 14 or 21 days followed by 14 or 7 days of chondrogenic medium, respectively. The test medium was either chondrogenic medium (negative control, no hypertrophy), medium containing triiodothyronine (T3) (hypertrophic), osteogenic medium (hypertrophic).
In autologous chondrocytes implantation (ACI) chondrocytes are implanted in a local cartilage defect. In an in vitro model of ACI based on a small osteochondral unit, as the one we use, a central cartilage defect would be filled with chondrocytes in a hydrogel. To simulate conditions of calcification, the chondrocytes will be pre-cultured in a hypertrophy inducing medium. After seeding, both native cartilage and implanted chondrocytes would be exposed to chondrogenic medium. We have previously shown that T3 induces hypertrophy in MSCs that underwent chondrogenic differentiation. […] Chondrogenic medium and osteogenic medium are used as comparison.

Consider `N[C@@H](Cc1cc(I)c(Oc2ccc(O)c(I)c2)c(I)c1)C(=O)O` [triiodothyronine], for which the “ALP activity in osteochondral constructs media” value in experiment [1] was “statistically significant (p<0.05) increase in ALP activity”. The primary chondrocytes hypertrophy entry in experiment [2] was “effective to induce primary chondrocytes hypertrophy”.
